Assay results as given in the supplement of paper PMC10307832.

Columns and labels:
Experiment in all cases: relative viability (nuclei count vs DMSO), 5 days (fraction); higher = more cells survive
[1] = compound: C=C(c1ccc(C(=O)O)cc1)c1cc2c(cc1C)C(C)(C)CCC2(C)C [Bexarotene] + CS(=O)(=O)CCNCc1ccc(-c2ccc3ncnc(Nc4ccc(OCc5cccc(F)c5)c(Cl)c4)c3c2)o1 [Lapatinib] (partner 2 µM)
Summary of the method: (§1)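 Nuclei were stained with Hoechst during a one-step fixation (final 0.05% Triton X-100, 1% formaldehyde, 1 ug/ml Hoechst) carried out 5 days after dosing, then counted on 4× images. The cells, lung cancer lines in 1536-well plates, had been dosed by pin tool the day after seeding with one drug alone or a fixed anchor-drug dose plus five library-drug doses (not always all listed) in √10 steps. Relative viability is the nuclei count in treated wells divided by that in vehicle wells, and each value is the median of duplicate plates.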

[2] = compound: C=C(c1ccc(C(=O)O)cc1)c1cc2c(cc1C)C(C)(C)CCC2(C)C [Bexarotene] + C[C@@H](Oc1cc(-c2cnn(C3CCNCC3)c2)cnc1N)c1c(Cl)ccc(F)c1Cl [Crizotinib] (partner 1 µM)
Summary of the method: as §1

[3] = compound: C=C(c1ccc(C(=O)O)cc1)c1cc2c(cc1C)C(C)(C)CCC2(C)C [Bexarotene] + Cc1nc(Nc2ncc(C(=O)Nc3c(C)cccc3Cl)s2)cc(N2CCN(CCO)CC2)n1 [Dasatinib] (partner 0.075 µM)
Summary of the method: as §1

[4] = compound: C=C(c1ccc(C(=O)O)cc1)c1cc2c(cc1C)C(C)(C)CCC2(C)C [Bexarotene] + Nc1nc2[nH]cc(CCc3ccc(C(=O)N[C@@H](CCC(=O)O)C(=O)O)cc3)c2c(=O)[nH]1 [Pemetrexed] (partner 0.2 µM)
Summary of the method: as §1

Cell Line: NCI-H358
- relative viability ([1]; first compound 0.08 µM): 0.461
- relative viability ([1]; first compound 0.253 µM): 0.464
- relative viability ([1]; first compound 0.8 µM): 0.483
- relative viability ([1]; first compound 2.53 µM): 0.574
- relative viability ([1]; first compound 8 µM): 0.535
- relative viability ([2]; first compound 0.08 µM): 0.541
- relative viability ([2]; first compound 0.253 µM): 0.603
- relative viability ([2]; first compound 0.8 µM): 0.497
- relative viability ([2]; first compound 2.53 µM): 0.66
- relative viability ([2]; first compound 8 µM): 0.49
- relative viability ([3]; first compound 0.08 µM): 0.224
- relative viability ([3]; first compound 0.253 µM): 0.33
- relative viability ([3]; first compound 0.8 µM): 0.251
- relative viability ([3]; first compound 2.53 µM): 0.234
- relative viability ([3]; first compound 8 µM): 0.259
- relative viability ([4]; first compound 0.08 µM): 0.182
- relative viability ([4]; first compound 0.253 µM): 0.184
- relative viability ([4]; first compound 0.8 µM): 0.144
- relative viability ([4]; first compound 2.53 µM): 0.167
- relative viability ([4]; first compound 8 µM): 0.158

Cell Line: LC-2-ad
- relative viability ([1]; first compound 0.08 µM): 0.993
- relative viability ([1]; first compound 0.253 µM): 1.09
- relative viability ([1]; first compound 0.8 µM): 1.07
- relative viability ([1]; first compound 2.53 µM): 0.994
- relative viability ([1]; first compound 8 µM): 0.997
- relative viability ([2]; first compound 0.08 µM): 0.443
- relative viability ([2]; first compound 0.253 µM): 0.46
- relative viability ([2]; first compound 0.8 µM): 0.44
- relative viability ([2]; first compound 2.53 µM): 0.504
- relative viability ([2]; first compound 8 µM): 0.412
- relative viability ([3]; first compound 0.08 µM): 0.696
- relative viability ([3]; first compound 0.253 µM): 0.602
- relative viability ([3]; first compound 0.8 µM): 0.575
- relative viability ([3]; first compound 2.53 µM): 0.497
- relative viability ([3]; first compound 8 µM): 0.625
- relative viability ([4]; first compound 0.08 µM): 0.294
- relative viability ([4]; first compound 0.253 µM): 0.279
- relative viability ([4]; first compound 0.8 µM): 0.28
- relative viability ([4]; first compound 2.53 µM): 0.247
- relative viability ([4]; first compound 8 µM): 0.302

Cell Line: HCC-15
- relative viability ([1]; first compound 0.08 µM): 0.93
- relative viability ([1]; first compound 0.253 µM): 0.984
- relative viability ([1]; first compound 0.8 µM): 0.944
- relative viability ([1]; first compound 2.53 µM): 0.833
- relative viability ([1]; first compound 8 µM): 0.846
- relative viability ([2]; first compound 0.08 µM): 0.842
- relative viability ([2]; first compound 0.253 µM): 0.924
- relative viability ([2]; first compound 0.8 µM): 0.789
- relative viability ([2]; first compound 2.53 µM): 0.837
- relative viability ([2]; first compound 8 µM): 0.783
- relative viability ([3]; first compound 0.08 µM): 0.695
- relative viability ([3]; first compound 0.253 µM): 0.741
- relative viability ([3]; first compound 0.8 µM): 0.648
- relative viability ([3]; first compound 2.53 µM): 0.647
- relative viability ([3]; first compound 8 µM): 0.683
- relative viability ([4]; first compound 0.08 µM): 0.218
- relative viability ([4]; first compound 0.253 µM): 0.229
- relative viability ([4]; first compound 0.8 µM): 0.214
- relative viability ([4]; first compound 2.53 µM): 0.184
- relative viability ([4]; first compound 8 µM): 0.207

Cell Line: NCI-H2405
- relative viability ([1]; first compound 0.08 µM): 1.16
- relative viability ([1]; first compound 0.253 µM): 1.07
- relative viability ([1]; first compound 0.8 µM): 0.824
- relative viability ([1]; first compound 2.53 µM): 1.08
- relative viability ([1]; first compound 8 µM): 1.24
- relative viability ([2]; first compound 0.08 µM): 0.945
- relative viability ([2]; first compound 0.253 µM): 0.853
- relative viability ([2]; first compound 0.8 µM): 0.665
- relative viability ([2]; first compound 2.53 µM): 0.806
- relative viability ([2]; first compound 8 µM): 0.839
- relative viability ([3]; first compound 0.08 µM): 0.219
- relative viability ([3]; first compound 0.253 µM): 0.247
- relative viability ([3]; first compound 0.8 µM): 0.136
- relative viability ([3]; first compound 2.53 µM): 0.144
- relative viability ([3]; first compound 8 µM): 0.188
- relative viability ([4]; first compound 0.08 µM): 1.25
- relative viability ([4]; first compound 0.253 µM): 1.09
- relative viability ([4]; first compound 0.8 µM): 0.939
- relative viability ([4]; first compound 2.53 µM): 0.977
- relative viability ([4]; first compound 8 µM): 1.07

Cell Line: LXF-289
- relative viability ([1]; first compound 0.08 µM): 1
- relative viability ([1]; first compound 0.253 µM): 1.07
- relative viability ([1]; first compound 0.8 µM): 1.04
- relative viability ([1]; first compound 2.53 µM): 1.07
- relative viability ([1]; first compound 8 µM): 1.03
- relative viability ([2]; first compound 0.08 µM): 0.901
- relative viability ([2]; first compound 0.253 µM): 0.994
- relative viability ([2]; first compound 0.8 µM): 1
- relative viability ([2]; first compound 2.53 µM): 0.979
- relative viability ([2]; first compound 8 µM): 0.973
- relative viability ([3]; first compound 0.08 µM): 0.213
- relative viability ([3]; first compound 0.253 µM): 0.195
- relative viability ([3]; first compound 0.8 µM): 0.179
- relative viability ([3]; first compound 2.53 µM): 0.127
- relative viability ([3]; first compound 8 µM): 0.155
- relative viability ([4]; first compound 0.08 µM): 1.04
- relative viability ([4]; first compound 0.253 µM): 1.12
- relative viability ([4]; first compound 0.8 µM): 1.16
- relative viability ([4]; first compound 2.53 µM): 0.974
- relative viability ([4]; first compound 8 µM): 1.04

Cell Line: CAL-12T
- relative viability ([1]; first compound 0.08 µM): 0.632
- relative viability ([1]; first compound 0.8 µM): 0.638
- relative viability ([1]; first compound 8 µM): 0.543
- relative viability ([2]; first compound 0.08 µM): 0.73
- relative viability ([2]; first compound 0.253 µM): 0.608
- relative viability ([2]; first compound 0.8 µM): 0.466
- relative viability ([2]; first compound 2.53 µM): 0.564
- relative viability ([2]; first compound 8 µM): 0.489
- relative viability ([3]; first compound 0.08 µM): 0.296
- relative viability ([3]; first compound 0.253 µM): 0.327
- relative viability ([3]; first compound 0.8 µM): 0.332
- relative viability ([3]; first compound 2.53 µM): 0.302
- relative viability ([3]; first compound 8 µM): 0.271
- relative viability ([4]; first compound 0.08 µM): 1.15
- relative viability ([4]; first compound 0.253 µM): 1.19
- relative viability ([4]; first compound 0.8 µM): 1.21
- relative viability ([4]; first compound 2.53 µM): 1.13
- relative viability ([4]; first compound 8 µM): 1.06

Cell Line: COR-L23
- relative viability ([1]; first compound 0.08 µM): 1.24
- relative viability ([1]; first compound 0.253 µM): 0.921
- relative viability ([1]; first compound 0.8 µM): 0.976
- relative viability ([1]; first compound 2.53 µM): 0.976
- relative viability ([1]; first compound 8 µM): 0.879
- relative viability ([2]; first compound 0.08 µM): 0.747
- relative viability ([2]; first compound 0.253 µM): 0.633
- relative viability ([2]; first compound 0.8 µM): 0.605
- relative viability ([2]; first compound 2.53 µM): 0.498
- relative viability ([2]; first compound 8 µM): 0.558
- relative viability ([3]; first compound 0.08 µM): 0.498
- relative viability ([3]; first compound 0.253 µM): 0.557
- relative viability ([3]; first compound 0.8 µM): 0.503
- relative viability ([3]; first compound 2.53 µM): 0.606
- relative viability ([3]; first compound 8 µM): 0.203
- relative viability ([4]; first compound 0.08 µM): 0.198
- relative viability ([4]; first compound 0.253 µM): 0.206
- relative viability ([4]; first compound 0.8 µM): 0.198
- relative viability ([4]; first compound 2.53 µM): 0.214
- relative viability ([4]; first compound 8 µM): 0.202

Cell Line: NCI-H1755
- relative viability ([1]; first compound 0.08 µM): 1.07
- relative viability ([1]; first compound 0.253 µM): 1.29
- relative viability ([1]; first compound 0.8 µM): 1.1
- relative viability ([1]; first compound 2.53 µM): 0.994
- relative viability ([1]; first compound 8 µM): 1.02
- relative viability ([2]; first compound 0.08 µM): 0.85
- relative viability ([2]; first compound 0.253 µM): 1.09
- relative viability ([2]; first compound 0.8 µM): 0.971
- relative viability ([2]; first compound 2.53 µM): 0.848
- relative viability ([2]; first compound 8 µM): 0.802
- relative viability ([3]; first compound 0.08 µM): 0.436
- relative viability ([3]; first compound 0.253 µM): 0.395
- relative viability ([3]; first compound 0.8 µM): 0.366
- relative viability ([3]; first compound 2.53 µM): 0.403
- relative viability ([3]; first compound 8 µM): 0.361
- relative viability ([4]; first compound 0.08 µM): 0.451
- relative viability ([4]; first compound 0.253 µM): 0.458
- relative viability ([4]; first compound 0.8 µM): 0.498
- relative viability ([4]; first compound 2.53 µM): 0.452
- relative viability ([4]; first compound 8 µM): 0.425

Cell Line: NCI-H1437
- relative viability ([1]; first compound 0.08 µM): 0.975
- relative viability ([1]; first compound 0.253 µM): 0.893
- relative viability ([1]; first compound 0.8 µM): 0.759
- relative viability ([1]; first compound 2.53 µM): 0.9
- relative viability ([1]; first compound 8 µM): 0.778
- relative viability ([2]; first compound 0.08 µM): 0.92
- relative viability ([2]; first compound 0.253 µM): 0.959
- relative viability ([2]; first compound 0.8 µM): 0.918
- relative viability ([2]; first compound 2.53 µM): 0.922
- relative viability ([2]; first compound 8 µM): 0.909
- relative viability ([3]; first compound 0.08 µM): 0.445
- relative viability ([3]; first compound 0.253 µM): 0.6
- relative viability ([3]; first compound 0.8 µM): 0.567
- relative viability ([3]; first compound 2.53 µM): 0.411
- relative viability ([3]; first compound 8 µM): 0.434
- relative viability ([4]; first compound 0.08 µM): 0.352
- relative viability ([4]; first compound 0.253 µM): 0.302
- relative viability ([4]; first compound 0.8 µM): 0.338
- relative viability ([4]; first compound 2.53 µM): 0.296
- relative viability ([4]; first compound 8 µM): 0.322
